Where a name gives a salt, the structure may show the parent alone.
Test system: XBP1s-luc 293 LUC
Experiment: cellular PD assay, XBP1s-LUC reporter (Example 903)
Format: cell-based
Conditions: Table 1; read-out: XBP1s-luc 293 LUC (IC50)
Method: Inhibition of IRE1α RNase activity was determined in an enzyme assay that measured cleavage of the XBP1 stem loop by autophosphorylated IRE1α. This assay format was chosen to ensure that inhibitors of either the IRE1α kinase or the RNase domains would be identified. Binding to the ATP pocket and inhibition of IRE1α kinase activity are not necessarily required to inhibit the RNase activity. Compounds were also profiled in cellular assays by direct measurement of XBP s (B-DNA assay) or by quantification of the luciferase signal in HT1080 XBP1-Luc, which carries a luciferase fusion that is only in frame and expressed from the spliced XBP1 transcript.
Biological activity of Formula I or I′ compounds was measured by an IRE1 biochemical binding assay (Example 901), a biochemical RNase assay (Example 902), a cellular PD assay, XBP1s-LUC reporter (Example 903), and an IRE1α-based inhibition of multiple myeloma (MM) cell proliferation assay.
All of the exemplary Formula I or I′ compounds in Tables 1 and 2 were made and characterized by LCMS [M+H]^+ (liquid chromatography mass spectroscopy) with detection of parent ion. All of the exemplary Formula I compounds in Tables 1 and 2 were prepared according to the procedures of the Schemes, General Procedures, and Examples. All of the exemplary Formula I or I′ compounds in Tables 1 and 2 were tested for binding to IRE1 (inositol requiring enzyme 1 alpha) and biological activity according to the assays and protocols of Example 901-903. Exemplary Formula I or I′ compounds in Tables 1 and 2 have the following structures, corresponding IUPAC names (ChemBioDraw, Version 12.0.2, CambridgeSoft Corp., Cambridge Mass.), and biological activity. Where more than one name is associated with a Formula I or I′ compound or intermediate in Tables 1 and 2 and the Experimental Procedures, the chemical structure shall define the compound. Assignment of configuration at chiral centers in separated stereoisomers may be tentative, and depicted in Tables 1 and 2 structures for illustrative purposes, before stereochemistry is definitively established, such as from x-ray crystallographic data. In some cases, stereoisomers are separated and tested for biological activity before the stereochemistry of the separated stereoisomers is determined; and stereochemistry in some instances was inferred based on structure-activity relationship (SAR) knowledge from previous compounds. In some cases, the compounds are tested as racemic or diastereomeric mixtures. Where more than one potency value is entered on a row, separated stereoisomers represented by the structure and name on that row were tested. Exemplary compounds of Formula I or I′ in Table 3 can be prepared using methods known in the art or according to procedures similar to those described in the Schemes, General Procedures, and Examples 101-500. Biological activities of compounds in Table 3 can be tested in biological assays, for example, those in Examples 901, 902 and 903 described herein.

Compound	IC50 [nM]
Cc1ccc2c(NC(=O)[C@@H]3CC3(F)F)cccc2c1Oc1ncccc1-c1ccnc(N[C@H]2CCCNC2)n1 (single isomer, unassigned) [Example 180]	213
Cc1ccc2c(NC(=O)[C@@H]3CCCC3C)cccc2c1Oc1ncccc1-c1ccnc(N[C@H]2CCCNC2)n1 (single isomer, unassigned) [Example 373]	193
Cc1ccc2c(NCCC(F)(F)F)cccc2c1Oc1ncccc1-c1ccnc(N[C@H]2CCCNC2)n1 [Example 348, (S)-4-(2-((2-Methyl-5-((3,3,3-trifluoropropyl)amino)naphthalen-1-yl)oxy)pyridin-3-yl)-N-(piperidin-3-yl)pyrimidin-2-amine]	79
Cc1ccc2c(NC(=O)[C@H]3C[C@@H]3C)cccc2c1Oc1ncccc1-c1ccnc(N[C@H]2CCCNC2)n1 [Example 234, (1S,2S)-2-Methyl-N-(6-methyl-5-((3-(2-(((S)-piperidin-3-yl)amino)pyrimidin-4-yl)pyridin-2-yl)oxy)naphthalen-1-yl)cyclopropane-1-carboxamide]	111
Cc1ccc2c(NC(=O)[C@@H]3C[C@H]3C)cccc2c1Oc1ncccc1-c1ccnc(N[C@H]2CCCNC2)n1 [Example 232, (1R,2R)-2-Methyl-N-(6-methyl-5-((3-(2-(((S)-piperidin-3-yl)amino)pyrimidin-4-yl)pyridin-2-yl)oxy)naphthalen-1-yl)cyclopropane-1-carboxamide]	136
Cc1ccc2c(NS(=O)(=O)Cc3ccccn3)cccc2c1Oc1ncccc1-c1ccnc(N[C@@H]2CNC[C@H](F)C2)n1 [Example 225, N-(5-((3-(2-(((3S,5R)-5-Fluoropiperidin-3-yl)amino)pyrimidin-4-yl)pyridin-2-yl)oxy)-6-methylnaphthalen-1-yl)-1-(pyridin-2-yl)methanesulfonamide]	467
Cc1ccc2c(NC(=O)[C@@H]3CC34CC4)cccc2c1Oc1ncccc1-c1ccnc(N[C@H]2CCCNC2)n1 (single isomer, unassigned) [Example 218]	174
Cc1ccc2c(NS(=O)(=O)C3CC3)cccc2c1Oc1ncccc1-c1ccnc(N[C@H]2CCCNC2)n1 [Example 105, (S)—N-(6-Methyl-5-((3-(2-(piperidin-3-ylamino)pyrimidin-4-yl)pyridin-2-yl)oxy)naphthalen-1-yl)cyclopropanesulfonamide hydrochloride]	493
Cc1ccc2c(NS(=O)(=O)Cc3ccccc3)cccc2c1Oc1ncccc1-c1ccnc(NC2CNCCC2F)n1 (stereo not shown) [Example 162, N-(5-((3-(2-((4-Fluoropiperidin-3-yl)amino)pyrimidin-4-yl)pyridin-2-yl)oxy)-6-methylnaphthalen-1-yl)-1-phenylmethanesulfonamide]	67
Cc1ccc2c(NS(=O)(=O)CC3CCOCC3)cccc2c1Oc1ncccc1-c1ccnc(N[C@H]2CCCNC2)n1 [Example 133, (S)—N-(6-Methyl-5-((3-(2-(piperidin-3-ylamino)pyrimidin-4-yl)pyridin-2-yl)oxy)naphthalen-1-yl)-1-(tetrahydro-2H-pyran-4-yl)methanesulfonamide hydrochloride]	158
Cc1ccc2c(NC3CCCC[C@H]3O)cccc2c1Oc1ncccc1-c1ccnc(N[C@H]2CCCNC2)n1 (stereo partly drawn) [Example 384, trans-2-((6-Methyl-5-((3-(2-((S)-piperidin-3-ylamino)pyrimidin-4-yl)pyridin-2-yl)oxy)naphthalen-1-yl)amino)cyclohexanol]	146
Cc1ccc2c(NC3CCCC3O)cccc2c1Oc1ncccc1-c1ccnc(N[C@H]2CCCNC2)n1 (mixture of isomers) [Example 383, anti-2-((6-Methyl-5-((3-(2-((S)-piperidin-3-ylamino)pyrimidin-4-yl)pyridin-2-yl)oxy)naphthalen-1-yl)amino)cyclopentanol]	231
Cc1ccc2c(NC(=O)[C@@H]3CC3C3CC3)cccc2c1Oc1ncccc1-c1ccnc(N[C@H]2CCCNC2)n1 (single isomer, unassigned) [Example 274]	100
Cc1ccc2c(NC(=O)[C@H]3CCCC3C)cccc2c1Oc1ncccc1-c1ccnc(N[C@H]2CCCNC2)n1 (single isomer, unassigned) [Example 372]	470
Cc1ccc2c(NC(=O)CC3CCCCC3)c(F)ccc2c1Oc1ncccc1-c1ccnc(N[C@H]2CCCNC2)n1 [Example 364, (S)-2-Cyclohexyl-N-(2-fluoro-6-methyl-5-((3-(2-(piperidin-3-ylamino)pyrimidin-4-yl)pyridin-2-yl)oxy)naphthalen-1-yl)acetamide]	216
Cc1ccc2c(NS(=O)(=O)N3CCCCC3)cccc2c1Oc1ncccc1-c1ccnc(N[C@H]2CCCNC2)n1 [Example 114, (S)—N-(6-Methyl-5-((3-(2-(piperidin-3-ylamino)pyrimidin-4-yl)pyridin-2-yl)oxy)naphthalen-1-yl)piperidine-1-sulfonamide hydrochloride]	382
Cc1ccc2c(NS(=O)(=O)Cc3ccc(F)cc3)cccc2c1Oc1ncccc1-c1ccnc(N[C@H]2CCCNC2)n1 [Example 150, (S)-1-(4-Fluorophenyl)-N-(6-methyl-5-((3-(2-(piperidin-3-ylamino)pyrimidin-4-yl)pyridin-2-yl)oxy)naphthalen-1-yl)methanesulfonamide]	25
Cc1ccc2c(-c3ccccn3)cccc2c1Oc1ncccc1-c1ccnc(N[C@H]2CCCNC2)n1 [Example 353, (S)-4-(2-((2-Methyl-5-(pyridin-2-yl)naphthalen-1-yl)oxy)pyridin-3-yl)-N-(piperidin-3-yl)pyrimidin-2-amine]	133
Cc1ccc2c(-n3nccc3C)cccc2c1Oc1ccccc1-c1ccnc(N[C@H]2CCCNC2)n1 [Example 246, (S)-4-(2-((2-Methyl-5-(5-methyl-1H-pyrazol-1-yl)naphthalen-1-yl)oxy)phenyl)-N-(piperidin-3-yl)pyrimidin-2-amine]	235

Same assay, conditions: Table 2; read-out: XBP1s-luc 293 LUC (IC50)

Compound	IC50 [nM]
Cc1c(F)c(NS(=O)(=O)CCC(F)(F)F)c2ccccc2c1Oc1ncccc1-c1ccnc(N[C@H]2CCCNC2)n1 [Example 482, (S)-3,3,3-Trifluoro-N-(2-fluoro-3-methyl-4-((3-(2-(piperidin-3-ylamino)pyrimidin-4-yl)pyridin-2-yl)oxy)naphthalen-1-yl)propane-1-sulfonamide]	65
COCCCS(=O)(=O)Nc1c(F)ccc2c(Oc3ncccc3-c3ccnc(N[C@H]4CCCNC4)n3)c(C)ccc12 [Example 450, (S)—N-(2-Fluoro-6-methyl-5-((3-(2-(piperidin-3-ylamino)pyrimidin-4-yl)pyridin-2-yl)oxy)naphthalen-1-yl)-3-methoxypropane-1-sulfonamide hydrochloride]	104
Cc1ccc2c(NS(=O)(=O)C[C@H]3CCC3(F)F)c(F)ccc2c1Oc1ncccc1-c1ccnc(N[C@H]2CCCNC2)n1 (single isomer, unassigned) [Example 471, hydrochloride]	17
Cc1c(F)c(NS(=O)(=O)Cc2ccccc2)c2ccccc2c1Oc1ncccc1-c1ccnc(N[C@H]2CCCNC2)n1 [Example 480, (S)—N-(2-Fluoro-3-methyl-4-((3-(2-(piperidin-3-ylamino)pyrimidin-4-yl)pyridin-2-yl)oxy)naphthalen-1-yl)-1-phenylmethanesulfonamide]	7
Cc1ccc2c(NS(=O)(=O)N(C)CC(F)(F)F)c(F)ccc2c1Oc1ncccc1-c1ccnc(N[C@@H]2CNC[C@@H](F)C2)n1 (single isomer, unassigned) [Example 500, hydrochloride]	8.7
Cc1ccc2c(NS(=O)(=O)CCC(C)(F)F)c(F)ccc2c1Oc1ncccc1-c1ccnc(N[C@@H]2CNC[C@@H](F)C2)n1 (single isomer, unassigned) [Example 498, hydrochloride]	33
Cc1ccc2c(NC[C@H](C)C#N)cccc2c1Oc1ncccc1-c1ccnc(N[C@H]2CCCNC2)n1 (single isomer, unassigned) [Example 415, hydrochloride]	269
Cc1ccc2c(NS(=O)(=O)Cc3ccc(C#N)cc3)c(F)ccc2c1Oc1ncccc1-c1ccnc(N[C@@H]2CNC[C@@H](F)C2)n1 (single isomer, unassigned) [Example 484, hydrochloride]	5
Cc1ccc2c(NS(=O)(=O)N3CCCC3)c(F)ccc2c1Oc1ncccc1-c1ccnc(N[C@H]2CCCNC2)n1 [Example 428, N-[2-Fluoro-6-methyl-5-[[3-[2-[[(3S)-3-piperidyl]amino]pyrimidin-4-yl]-2-pyridyl]oxy]-1-naphthyl]pyrrolidine-1-sulfonamide hydrochloride]	28
